# Read-outs that look alike come from different tables or passages of the source.
# Tests used:
# HCT-8 = assay: in vitro screen against human tumor cell line HCT-8 (colon), GI50; type: cell-based
# KB = assay: in vitro screen against human tumor cell line KB (nasopharyngeal), GI50; type: cell-based; conditions: for GI50: read-out: GI50 KB
# DU145 = assay: in vitro screen against human tumor cell line DU-145 (prostate), GI50; type: cell-based
# A549 = assay: in vitro screen against human tumor cell line A549 (lung), GI50; type: cell-based
# KBvin = assay: in vitro screen against KBvin cell line, GI50; type: cell-based
# [1] = Homo sapiens, HCT-8, Example 2, Table 2, 12-aza-antofines, read-out: GI50 HCT-8
# [2] = Homo sapiens, KB, Example 2, Table 2, 12-aza-antofines
# [3] = Homo sapiens, DU-145, Example 2, Table 2, 12-aza-antofines, read-out: GI50 DU145
# [4] = Homo sapiens, A549, Example 2, Table 2, 12-aza-antofines, read-out: GI50 A549
# [5] = Homo sapiens, HCT-8, Example 2, Table 3, 13-aza-cryptopleurines, read-out: GI50 HCT-8
# [6] = Homo sapiens, KB, Example 2, Table 3, 13-aza-cryptopleurines
# [7] = Homo sapiens, DU-145, Example 2, Table 3, 13-aza-cryptopleurines, read-out: GI50 DU145
# [8] = Homo sapiens, A549, Example 2, Table 3, 13-aza-cryptopleurines, read-out: GI50 A549
# [9] = Homo sapiens, KB, Example 3, Table 1
# [10] = Homo sapiens, KBVIN, Example 3, Table 1
# [11] = Homo sapiens, DU-145, Example 3, Table 1, read-out: GI50 DU145
# [12] = Homo sapiens, A549, Example 3, Table 1, read-out: GI50 A549
# [13] = Homo sapiens, HCT-8, Example 2, Table 4, 12-aza-cryptopleurines, read-out: GI50 HCT-8
# [14] = Homo sapiens, KB, Example 2, Table 4, 12-aza-cryptopleurines
# [15] = Homo sapiens, DU-145, Example 2, Table 4, 12-aza-cryptopleurines, read-out: GI50 DU145
# [16] = Homo sapiens, A549, Example 2, Table 4, 12-aza-cryptopleurines, read-out: GI50 A549
# [17] = Example 2, Table 2, 12-aza-antofines
# [18] = Example 2, Table 2, 12-aza-antofines, read-out: GI50 DU145
# [19] = Example 2, Table 2, 12-aza-antofines, read-out: GI50 A549
compound,measurement,setting,value
"COc1ccc2c3c(c4cc(OC)c(OC)cc4c2c1)C[C@H]1CN(C2CC2)CN1C3 [Compound 3g, (S)-12-aza-12N-cyclopropyl-antofine]",GI50,HCT-8; [1],1.85 µM
same,GI50,KB; [2],2.71 µM
same,melting point,,204 to 206 °C
same,GI50,DU145; [3],3.7 µM
same,GI50,A549; [4],1.8 µM
COc1ccc2c3c(c4cc(OC)c(OC)cc4c2c1)C[C@H]1CN(Cc2ccccc2)CN1C3 [3a],melting point,,113 to 115 °C
"(14R,14aS)-11-oxo-14-hydroxyl-cryptopleurine [Compound 21b]",GI50,KB,0.30 µM
same,GI50,KBvin,0.12 µM
same,GI50,DU145; read-out: GI50 DU145,0.2 µM
same,GI50,A549; read-out: GI50 A549,0.069 µM
"COC(=O)N1CCN2Cc3c(c4cc(OC)c(OC)cc4c4cc(OC)ccc34)C[C@H]2C1 [Compound 8c, (S)-13-aza-13N-methoxycarbonyl-cryptopleurine]",GI50,HCT-8; [5],12.1 µM
same,GI50,KB; [6],11.3 µM
same,melting point,,99 to 101 °C
same,GI50,DU145; [7],12.2 µM
same,GI50,A549; [8],10.9 µM
COc1ccc2c3c(c4cc(OC)c(OC)cc4c2c1)C[C@H]1[C@H](O)CCN1C3 [Compound 3b],GI50,KB; [9],0.5 µM
same,GI50,KBvin; [10],0.64 µM
same,GI50,DU145; [11],0.85 µM
same,GI50,A549; [12],0.27 µM
"COc1ccc2c3c(c4cc(OC)c(OC)cc4c2c1)C[C@H]1CN(CC2CC2)CCN1C3 [Compound 8g, (S)-13-aza-13N-cyclopropylmethyl-cryptopleurine]",GI50,HCT-8; [5],0.25 µM
same,GI50,KB; [6],6.57 µM
same,melting point,,160 to 162 °C
same,GI50,DU145; [7],2.94 µM
same,GI50,A549; [8],0.79 µM
"COc1ccc2c3c(c4cc(OC)c(OC)cc4c2c1)C[C@H]1CNCCN1C3.Cl.Cl [Compound 8a, (S)-13-aza-cryptopleurine dihydrochloride]",GI50,HCT-8; read-out: GI50 HCT-8,1.62 µM
same,GI50,KB,1.79 µM
same,GI50,DU145; read-out: GI50 DU145,2.08 µM
same,GI50,A549; read-out: GI50 A549,1.73 µM
"CCN1CCN2Cc3c(c4cc(OC)c(OC)cc4c4cc(OC)ccc34)C[C@H]2C1 [Compound 8b, (S)-13-aza-13N-ethyl-cryptopleurine]",GI50,HCT-8; [5],9.45 µM
same,GI50,KB; [6],8.24 µM
same,melting point,,83 to 85 °C
same,GI50,DU145; [7],10.5 µM
same,GI50,A549; [8],7.13 µM
"CCCN1C[C@@H]2Cc3c(c4ccc(OC)cc4c4cc(OC)c(OC)cc34)CN2C1 [Compound 3c, (S)-12-aza-12N-propyl-antofine]",GI50,HCT-8; [1],2.71 µM
same,GI50,KB; [2],6.64 µM
same,melting point,,155 to 157 °C
same,GI50,DU145; [3],7.38 µM
same,GI50,A549; [4],3.94 µM
"COc1ccc2c3c(c4cc(OC)c(OC)cc4c2c1)C[C@H]1CCN(CCO)CN1C3 [Compound 11a, (S)-12-aza-12N-hydroxylethyl-cryptopleurine]",GI50,HCT-8; [13],10.7 µM
same,GI50,KB; [14],1.59 µM
same,melting point,,138 to 140 °C
same,GI50,DU145; [15],1.99 µM
same,GI50,A549; [16],5.68 µM
"COc1ccc2c3c(c4cc(OC)c(OC)cc4c2c1)C[C@H]1C[C@H](O)[C@@H](O)CN1C3 [Compound 24a, (12S,13S,14aS)-12,13-dihydroxyl-cryptopleurine]",GI50,KB; [9],0.84 µM
same,GI50,KBvin; [10],2.17 µM
same,GI50,DU145; [11],0.6 µM
same,GI50,A549; [12],0.55 µM
"COC(=O)CN1CCN2Cc3c(c4cc(OC)c(OC)cc4c4cc(OC)ccc34)C[C@H]2C1 [Compound 8f, (S)-13-aza-13N-methoxycarbonylmethyl-cryptopleurine]",GI50,HCT-8; [5],14 µM
same,GI50,KB; [6],14.7 µM
same,melting point,,111 to 113 °C
same,GI50,DU145; [7],20.8 µM
same,GI50,A549; [8],14.7 µM
"COc1ccc2c3c(c4cc(OC)c(OC)cc4c2c1)C[C@H]1CN(C2CC2)CCN1C3 [Compound 8h, (S)-13-aza-13N-cyclopropyl-cryptopleurine]",GI50,HCT-8; [5],13 µM
same,GI50,KB; [6],23.4 µM
same,melting point,,115 to 117 °C
same,GI50,DU145; [7],17.9 µM
same,GI50,A549; [8],23.2 µM
"COc1ccc2c3c(c4cc(OC)c(OC)cc4c2c1)C[C@H]1CN(CCc2ccccc2)CN1C3 [Compound 3d, (S)-12-aza-12N-phenylethylenyl-antofine]",GI50,"HCT-8; Homo sapiens, HCT-8, read-out: GI50 HCT-8",7.47 µM
same,GI50,"KB; Homo sapiens, KB",10 µM
same,melting point,,85 to 87 °C
same,GI50,"DU145; Homo sapiens, DU-145, read-out: GI50 DU145",10.2 µM
same,GI50,"A549; Homo sapiens, A549, read-out: GI50 A549",6.62 µM
COc1ccc2c3c(c4cc(OC)c(OC)cc4c2c1)C[C@H]1CN(CC(C)C)CN1C3,melting point,,93 to 95 °C
"COc1ccc2c(c1)c1c(c3cc(OC)c(OC)cc32)C[C@H]2CCN(C3CC3)CN2C1 [Compound 11e, (S)-12-aza-12N-cyclopropyl-cryptopleurine]",GI50,HCT-8; read-out: GI50 HCT-8,5.73 µM
same,GI50,KB,11.47 µM
same,GI50,DU145; read-out: GI50 DU145,14.3 µM
same,GI50,A549; read-out: GI50 A549,4.3 µM
"COc1ccc2c3c(c4cc(OC)c(OC)cc4c2c1)C[C@H]1CCN(Cc2ccccc2)CN1C3 [Compound 11d, (S)-12-aza-12N-benzyl-cryptopleurine]",GI50,HCT-8; [13],21.3 µM
same,GI50,KB; [14],> 40 µM
same,melting point,,211 to 213 °C
same,GI50,DU145; [15],> 40 µM
same,GI50,A549; [16],29.9 µM
"COc1ccc2c3c(c4cc(OC)c(OC)cc4c2c1)C[C@H]1C[C@@H](O)[C@H](O)CN1C3 [Compound 24b, (12R,13R,14aS)-12,13-dihydroxyl-cryptopleurine]",GI50,KB; [9],17.5 µM
same,GI50,KBvin; [10],12.6 µM
same,GI50,DU145; [11],17.1 µM
same,GI50,A549; [12],14.5 µM
"COc1ccc2c3c(c4cc(OC)c(OC)cc4c2c1)C[C@H]1CN(C(=O)c2ccccc2)CCN1C3 [Compound 8i, (S)-13-aza-13N-benzoyl-cryptopleurine]",GI50,HCT-8; [5],18.1 µM
same,GI50,KB; [6],20.1 µM
same,melting point,,203 °C (dec.)
same,GI50,DU145; [7],15.7 µM
same,GI50,A549; [8],15 µM
COc1ccc2c3c(c4cc(OC)c(OC)cc4c2c1)C[C@H]1[C@@H](O)CCN1C3 [Compound 3a],GI50,KB; [9],1.83 µM
same,GI50,KBvin; [10],3.42 µM
same,GI50,DU145; [11],3.2 µM
same,GI50,A549; [12],2.81 µM
"COc1ccc2c3c(c4cc(OC)c(OC)cc4c2c1)C[C@H]1C[C@H](OC)CCN1C3 [Compound 26b, (13R,14aS)-13-methoxy-cryptopleurine]",GI50,KB; [9],0.1 µM
same,GI50,KBvin; [10],0.066 µM
same,GI50,DU145; [11],0.056 µM
same,GI50,A549; [12],0.025 µM
"COc1ccc2c3c(c4cc(OC)c(OC)cc4c2c1)C[C@H]1C[C@@H](OC)CCN1C3 [Compound 26a, (13S,14aS)-13-methoxy-cryptopleurine]",GI50,KB; [9],5.24 µM
same,GI50,KBvin; [10],3.69 µM
same,GI50,DU145; [11],3.57 µM
same,GI50,A549; [12],7.11 µM
"COc1ccc2c3c(c4cc(OC)c(OC)cc4c2c1)C[C@H]1CN(C)CN1C3 [Compound 3i, (S)-12-aza-12N-dimethylamino-antofine]",GI50,"HCT-8; Example 2, Table 2, 12-aza-antofines, read-out: GI50 HCT-8",2.01 µM
same,GI50,KB; [17],2.31 µM
same,GI50,DU145; [18],2.26 µM
same,GI50,A549; [19],1.67 µM
"COC1=C[C@@H]2Cc3c(c4ccc(OC)cc4c4cc(OC)c(OC)cc34)CN2C1 [Compound 7, (S)-12-methoxy-antofine-12-ene]",GI50,HCT-8; read-out: GI50 HCT-8,3.56 µM
same,GI50,KB,12.00 µM
same,GI50,KBvin,2.64 µM
same,GI50,DU145; read-out: GI50 DU145,10.3 µM
same,GI50,A549; read-out: GI50 A549,5.97 µM
"COc1ccc2c3c(c4cc(OC)c(OC)cc4c2c1)CC1CN(C)CN1C3 (stereo in doubt) [Compound 3k, (R)-12-aza-12N-dimethylamino-antofine]",GI50,KB; [17],2.38 µM
same,GI50,"KBvin; Homo sapiens, Table 2, cells marked (KBvin) in the HCT-8 column",11 µM
same,GI50,DU145; [18],6.01 µM
same,GI50,A549; [19],4.15 µM
"COc1ccc2c3c(c4cc(OC)c(OC)cc4c2c1)C[C@H]1CCN(C)CN1C3 [Compound 11f, (S)-12-aza-12N-dimethylamino-cryptopleurine]",GI50,HCT-8; [13],2.37 µM
same,GI50,KB; [14],3.08 µM
same,GI50,DU145; [15],2.97 µM
same,GI50,A549; [16],1.78 µM
"COc1ccc2c3c(c4cc(OC)c(OC)cc4c2c1)C[C@H]1CCCN1C3 [R-antofine, reference compound]",KB GI50,"KB; Example 1, Table 1",0.036 µM
same,GI50,KB; [9],0.036 µM
same,GI50,KBvin; [10],0.025 µM
same,GI50,"A549; Homo sapiens, A549, Example 1, Table 1, read-out: A549 GI50",0.022 µM
(S)-12-aza-12N-phenyl-cryptopleurine [Compound 11b],GI50,HCT-8; read-out: GI50 HCT-8,28.4 µM
same,GI50,KB,>40 µM
same,GI50,DU145; read-out: GI50 DU145,> 40 µM
same,GI50,A549; read-out: GI50 A549,> 40 µM
"(14S,14aS)-11-oxo-14-hydroxyl-cryptopleurine [Compound 21a]",GI50,KB,0.025 µM
same,GI50,KBvin,0.025 µM
same,GI50,DU145; read-out: GI50 DU145,0.033 µM
same,GI50,A549; read-out: GI50 A549,0.01 µM
"COc1ccc2c3c(c4cc(OC)c(OC)cc4c2c1)C[C@H]1CN(S(C)(=O)=O)CCN1C3 [Compound 8e, (S)-13-aza-13N-methylsulfonyl-cryptopleurine]",GI50,HCT-8; read-out: GI50 HCT-8,17.8 µM
same,GI50,KB,17.52 µM
same,GI50,DU145; read-out: GI50 DU145,17 µM
same,GI50,A549; read-out: GI50 A549,14.5 µM
"CC[C@@]1(O)CCN2Cc3c(c4cc(OC)c(OC)cc4c4cc(OC)ccc34)C[C@H]2C1 [Compound 25, (13R,14aS)-13-ethyl-13-hydroxyl-cryptopleurine]",GI50,KB; [9],0.92 µM
same,GI50,KBvin; [10],0.87 µM
same,GI50,DU145; [11],0.77 µM
same,GI50,A549; [12],0.99 µM

# Reference: patent US9216977B2 (The University of North Carolina at Chapel Hill, priority 2009, dated 2015)
